Measured values as given in ChEMBL document CHEMBL1201862, “PubChem BioAssay data set” (2004).
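Tested at 5 concentrations; 48 h exposure; 96-well plates; endpoints linearly interpolated, else capped at highest concentration. Here, GI50 denotes the concentration required for 50% inhibition of growth.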 Active and inactive are the calls of the source. Rule as the data show it: active = GI50 up to about 1.1 µM and inactive = higher.

Assays:
Test in all cases: NCI tumour cell line growth inhibition, 48 h
786-0 = tested on: 786-0
A498 = tested on: A498
A549 = tested on: A549
ACHN = tested on: ACHN
BT-549 = tested on: BT-549
CCRF-CEM = tested on: CCRF-CEM
COLO 205 = tested on: COLO 205
DU-145 = tested on: DU-145
EKVX = tested on: EKVX
HCC 2998 = tested on: HCC 2998
HCT-116 = tested on: HCT-116
HCT-15 = tested on: HCT-15
HL-60 = tested on: HL-60
HOP-62 = tested on: HOP-62
HOP-92 = tested on: HOP-92
HT-29 = tested on: HT-29
Hs-578T = tested on: Hs-578T
IGROV-1 = tested on: IGROV-1
K562 = tested on: K562
KM12 = tested on: KM12
LOX IMVI = tested on: LOX IMVI
M14 = tested on: M14
MCF7 = tested on: MCF7
MDA-MB-231 = tested on: MDA-MB-231
MDA-MB-435 = tested on: MDA-MB-435
MDA-N = tested on: MDA-N
MOLT-4 = tested on: MOLT-4
Malme-3M = tested on: Malme-3M
NCI-H226 = tested on: NCI-H226
NCI-H23 = tested on: NCI-H23
NCI-H460 = tested on: NCI-H460
NCI-H522 = tested on: NCI-H522
NCI/ADR-RES = tested on: NCI/ADR-RES
OVCAR-3 = tested on: OVCAR-3
OVCAR-4 = tested on: OVCAR-4
OVCAR-5 = tested on: OVCAR-5
OVCAR-8 = tested on: OVCAR-8
PC-3 = tested on: PC-3
RPMI-8226 = tested on: RPMI-8226
RXF 393 = tested on: RXF 393
SF-268 = tested on: SF-268
SF-295 = tested on: SF-295
SF-539 = tested on: SF-539
SK-MEL-28 = tested on: SK-MEL-28
SK-MEL-2 = tested on: SK-MEL-2
SK-MEL-5 = tested on: SK-MEL-5
SK-OV-3 = tested on: SK-OV-3
SN12C = tested on: SN12C
SNB-19 = tested on: SNB-19
SNB-75 = tested on: SNB-75
SR = tested on: SR
SW-620 = tested on: SW-620
T47D = tested on: T47D
TK-10 = tested on: TK-10
U-251 = tested on: U-251
UACC-257 = tested on: UACC-257
UACC-62 = tested on: UACC-62
UO-31 = tested on: UO-31
CAKI-1 = tested on: CAKI-1

Measured: GI50

COc1cc(/C=C2\CC(C)C/C(=C\c3ccc(O)c(OC)c3)C2=O)ccc1O (stereo not given)
1.73 µM: HCT-15
inactive: 786-0 > 20.2 µM | A498 2.52 µM | A549 3.64 µM | ACHN 3.13 µM | BT-549 3.23 µM | CCRF-CEM 2.56 µM | COLO 205 10.9 µM | DU-145 3.72 µM | EKVX 13.8 µM | HCC 2998 3.21 µM | HCT-116 1.77 µM | HL-60 2.98 µM | HOP-62 3.46 µM | HOP-92 2.92 µM | HT-29 6.37 µM | Hs-578T 2.05 µM | IGROV-1 2.4 µM | K562 4.48 µM | KM12 1.85 µM | LOX IMVI 2.29 µM | M14 3.04 µM | MCF7 4.66 µM | MDA-MB-231 2.06 µM | MDA-MB-435 2.32 µM | MDA-N 2.54 µM | MOLT-4 2.29 µM | Malme-3M 1.9 µM | NCI-H226 4.85 µM | NCI-H23 3.1 µM | NCI-H460 2.88 µM | NCI-H522 2.11 µM | NCI/ADR-RES 17.5 µM | OVCAR-3 2.8 µM | OVCAR-4 2.52 µM | OVCAR-5 19.6 µM | OVCAR-8 9.2 µM | PC-3 4 µM | RPMI-8226 3.58 µM | RXF 393 2.85 µM | SF-268 4.31 µM | SF-295 10.6 µM | SF-539 3.12 µM | SK-MEL-28 3.42 µM | SK-MEL-2 4.53 µM | SK-MEL-5 1.82 µM | SK-OV-3 3.49 µM | SN12C 2.56 µM | SNB-19 10.2 µM | SNB-75 4.24 µM | SR 2.86 µM | SW-620 2.24 µM | T47D 1.6 µM | TK-10 5.45 µM | U-251 2.38 µM | UACC-257 3.87 µM | UACC-62 1.85 µM | UO-31 2.24 µM

N#Cc1c(C#N)c(-c2ccccc2)n(/N=C\c2ccccc2)c1N
inactive: 786-0 28.1 µM | A498 23.8 µM | A549 13 µM | ACHN 14.2 µM | BT-549 18.7 µM | CAKI-1 18.3 µM | CCRF-CEM 12.3 µM | COLO 205 22.5 µM | DU-145 35.2 µM | EKVX 13.6 µM | HCC 2998 19.7 µM | HCT-116 29.4 µM | HL-60 16.1 µM | HOP-62 31.3 µM | HOP-92 20.8 µM | HT-29 26.1 µM | Hs-578T 15.9 µM | IGROV-1 15.6 µM | K562 13.2 µM | KM12 26.9 µM | LOX IMVI 8.02 µM | M14 24.8 µM | MCF7 11.8 µM | MDA-MB-231 16 µM | MDA-MB-435 45.4 µM | MDA-N 36.1 µM | MOLT-4 5.27 µM | Malme-3M 29.9 µM | NCI-H226 20.8 µM | NCI-H23 24.4 µM | NCI-H522 11.6 µM | NCI/ADR-RES 11.2 µM | OVCAR-3 12.9 µM | OVCAR-4 12.9 µM | OVCAR-5 29 µM | OVCAR-8 18 µM | PC-3 14.4 µM | RPMI-8226 3.46 µM | RXF 393 17.9 µM | SF-268 28.8 µM | SF-295 7.4 µM | SF-539 15.9 µM | SK-MEL-2 22.2 µM | SK-MEL-5 11.4 µM | SK-OV-3 14.1 µM | SN12C 47 µM | SNB-19 30.8 µM | SNB-75 19.1 µM | SR 10.4 µM | SW-620 62.4 µM | T47D 3.37 µM | TK-10 29.4 µM | U-251 16.5 µM | UACC-257 17.3 µM | UACC-62 12.5 µM | UO-31 19 µM
30.6 µM: HCT-15
